Legend:
Type in all cases: cell-based, human
[1] = system: hM4Di-expressing K18-seeded 4R-P301S-HaloTag neurons; assay: DREADDs chronic neuronal silencing, MC1 tau inclusions; details: CNO weekly for 2 weeks starting one week after K18 seeding
Description: 4R-P301S-HaloTag iPSCs were differentiated into neurons on coverslips as described. Neurons were transduced with hSyn-hM4Di-mCherry lentivirus on D6. This lentiviral construct was made using the 3rd generation lentiviral plasmid FUGW (Addgene, 14883), where the PacI+EcoRI fragment was replaced by hSyn-hM4D(Gi)-mCherry. pAAV-hSyn-hM4D(Gi)-mCherry was a gift from Bryan Roth (Addgene, 50475; http://n2t.net/addgene). The medium was changed on D7, and neurons were seeded with […] K18-tau fibrils. Neurons were maintained as described. Beginning at D14, clozapine-N-oxide (CNO; Tocris) was included in weekly media changes for a final concentration of […]. Neurons were fixed and stained with MC1 on D29. For MC1 quantification, stained neurons were imaged with a fluorescence microscope (Keyence BZ-X710). A 20× objective was used to acquire a series of 10 Z-stack images per coverslip. To validate the neuronal silencing effect of CNO by calcium imaging, 4R-P301S neurons were differentiated and transduced with hSyn-hM4Di-mCherry and hSyn-GCaMP8f lentivirus on D6. At D36, JFX-549 was added to neurons and prepared for imaging as described above. Exposure time was set to 20 milliseconds. Neurons were perfused with 10 μM CNO at 60 seconds and calcium traces in one field were recorded for 400 seconds.

[2] = system: hM4Di-expressing 4R-P301S neurons; assay: Calcium imaging of acute neuronal silencing by CNO; details: upon addition of CNO
Description: 4R-P301S-HaloTag iPSCs were differentiated into neurons on coverslips as described. Neurons were transduced with hSyn-jGCaMP8f lentivirus on D6. This lentiviral construct was made using the 3rd generation lentiviral plasmid FUGW (Addgene, 14883), where the PacI+EcoRI fragment was replaced by the hSyn-GCaMP8f fragment (Zhang et al., 2023). pGP-AAV-hSyn-jGCaMP8f-WPRE was a gift from GENIE Project (Addgene, 162376). The medium was changed on D7, and neurons were seeded with […] K18-tau fibrils. Neurons were maintained as described until imaging at 4 and 5 weeks old. On the day of imaging, JFX-549 HaloTag ligand (HHMI Janelia) was diluted into fresh maturation medium to […], and one-fifth of neuronal medium was replaced with diluted ligand (200 nM final ligand concentration). Cells were incubated at 37° C. for 15 minutes. An equal volume of medium was replaced with half-fresh medium, and half-conditioned medium from a control well. […] Fluorescence time-lapse images were collected on a Nikon FN1 microscope using a 60×, 1.0 NA objective (CFI APO 60XW NIR, Nikon) and a C-FL GFP filter cube. […]
4R-P301S-HaloTag iPSCs were differentiated into neurons on coverslips as described. […] For MC1 quantification, stained neurons were imaged with a fluorescence microscope (Keyence BZ-X710). […] Neurons were perfused with 10 μM CNO at 60 seconds and calcium traces in one field were recorded for 400 seconds.

[3] = system: tau inclusion in K18-seeded 4R-P301S neurons; assay: UBA5 inhibitor treatment, flow cytometry of MC1+ tau inclusions; details: for tau inclusion induced by K18 seeding (MC1+/DAPI+ neurons) compared with control treatment group: treated Day 5, 3.0 ug/mL K18 Day 7, FACS Day 21
Description: Pre-differentiation of human iPSCs into neurons was initiated by plating 1.5×10^6 iPSCs in one well Matrigel-coated 6-well plates with Knockout DMEM/F-12 media containing doxycycline ([…]), N2 supplement, non-essential amino acids, brain-derived neurotrophic factor (10 ng/mL, Peprotech), neurotrophin-3 (10 ng/mL, PeproTech) and ROCK inhibitor (Y-27632, Cayman chemicals). The media was replaced the next day without ROCK inhibitor, and pre-differentiation was maintained for a total of three days. On day 0, the pre-differentiated precursor cells were dissociated with Accutase and re-plated generally onto Laminin-coated coverslips (Neuvitro) at 1.5×10^5 cells/coverslip or 12-well tissue culture plates (Corning) at 3.8×10^5 cells/well for the growth of neuronal cultures in Neurobasal Plus media containing B27 supplement, Glutamax, BDNF (10 ng/mL) and NT3 (10 ng/mL) with doxycycline (2 μg/mL). Half of the medium was replaced on day 3, as well as on day 7 with the removal of doxycycline from the fresh media. The medium volume was doubled on day 21. Thereafter, one-half of the medium was replaced with fresh medium weekly until the cells were collected. All human iPS cell lines used in this work have been regularly tested for mycoplasma (Lonza) and karyotyped (MSK Molecular Cytogenetics Core).
Myc-tagged K18-P301L Tau was expressed and purified as previously described2. Briefly, protein expression was induced in Terrific Broth containing the chemical chaperone betaine (10 mM) and IPTG (500 uM) for 3 hrs at 30° C. Tau was purified via the following major steps: mechanical lysis, boiling, centrifugation, and cation exchange. Purified Tau fractions were dialyzed into aggregation assay buffer (PBS pH 7.4, 2 mM DTT). To minimize potential endotoxin contamination, purified tau was incubated with poly(epsilon-lysine) conjugated resin (Pierce), then tested post-treatment for endotoxin levels using the ToxinSensor™ Chromogenic LAL Endotoxin Assay Kit (Genscript). […] The concentration of aggregated tau was quantified by Pierce BCA assay. […]

[4] = system: 4R-P301S iPSC-derived neurons; assay: Toxic effect of UBA5 inhibitor on iPSC-derived neurons; details: 5 uM, 10 uM and 20 uM (data not shown)
Description: 4R-P301S iPSCs were seeded at the density of 1.2×10^7 per plate in 10-cm plates in pre-differentiation medium. On day 0, pre-differentiated neurons were replated at the density of 4×10^5 per well in poly-D-lysine (PDL) pre-coated 12-well plates (Corning) in maturation medium. On day 5, iPSCs differentiated neurons were treated with three UBA5 inhibitors separately ay various concentrations. On day 7, iPSCs differentiated neurons were treated with […] K18 fibrils for 2 weeks. On day 21, neurons in 12-well plates were collected for flow cytometry analysis.

Structure (SMILES) | levels of Tau inclusions (MC1+ aggregates) compared with vehicle treatment [1] | neuronal activities (calcium imaging) [2] | tau inclusion induced by K18 seeding (MC1+/DAPI+ neurons) compared with control treatment group ([3]; 0.1 uM) | tau inclusion induced by K18 seeding (MC1+/DAPI+ neurons) compared with control treatment group ([3]; 1 uM) | percentage of MC1+ cells (tau inclusion induced by K18 treatment) ([3]; D21(7+14), 3 μg/ml K18-seeded 4R-P301S neurons pre-treated at various concentrations, FIG. 15 legend) | toxic effect on neurons [4]
C[N+]1([O-])CCN(C2=Nc3cc(Cl)ccc3Nc3ccccc32)CC1 [CNO, clozapine-N-oxide] | significantly reduced | silenced |  |  |  | 
CC(=O)c1c(O)c(C)c(O)c2c1OC1=CC(=O)/C(=C(/C)N)C(=O)[C@@]12C [Usenamine A, (2E,9bR)-6-acetyl-2-(1-aminoethylidene)-7,9-dihydroxy-8,9b-dimethyldibenzouran-1,3-dione] |  |  | failed to prevent tau inclusion | successfully prevented tau inclusion | prevented the tau inclusion | exerted toxic effect on neurons

Source: patent US20240409890A1, “UFMYLATION INHIBITION TO TARGET TAUOPATHY IN HUMAN NEURONS” (priority 2023, published 2024)
